# Measured values: patent publication US6676941B2 (Board of Regents, The University of Texas System, priority 1999, dated 2004)
# How the values were obtained:
# KDR = assay: 125I-VEGF binding to KDR expressing endothelial cells (ABAE cells); design: species or system bovine
# [1] = test system: VEGF-mediated growth of ABAE cells; assay: Endothelial cell growth assay (MTS), VEGF-mediated growth of ABAE cells; type: cell-based, bovine; details: Table 5 summary
# Experimental: Adult bovine aortic endothelial (ABAE) cells were plated into 96-well tissue culture plates at 1500 cells/well and grown in the presence of 0.5 nM human VEGF with the addition of the various sample and control antibodies. Control wells received media with or without VEGF.
# After 4 days of incubation, the cells were quantified by an MTS (3-(4,5-dimethylthiazol-2-yl)-5-(3-carboxylmethoxyphenyl)-2-(4-sulfophenyl)-2H-tetrazolium, inner salt) conversion assay, where MTS conversion to a formazan is proportional to cell number and can be followed by absorbance at 490 nm (Cell Titer 96 AQueous One Solution Cell Proliferation Assay, Promega, Madison, Wis.). The assay was performed according to the manufacturer's instructions.
# Cell growth was estimated by subtracting the MTS conversion in cultures to which VEGF was not added. Results were expressed as a percentage of the MTS conversion in control cultures to which only VEGF was added (Buttke et al., 1993).
# VEGFR2 = assay: VEGF-induced phosphorylation of VEGFR2 in PAE/KDR cells (immunoprecipitation, western blot); type: cell-based; details: 15 min stimulation, antibodies at 100 nM (15 μg/ml)
# Experimental: PAE/KDR, PAE/FLT, and bEND.3 cells were grown to 80-90% confluency in 100 mm tissue dishes in media containing 5% serun. The cells were then serum starved for 24 hours in media containing 0.1% serum. After pretreatment with […] sodium orthovanadate in PBS for 30 min, the cells were incubated with 5 nM (200 ng/ml) VEGF165, 5 nM (100 ng/ml) bFGF (R&D Systems, Minneapolis, Minn.), or A673 tumor conditioned media in the presence or absence of control or test antibodies for additional 15 min.
# The cells were then washed with ice-cold PBS containing 10 mM EDTA, 2 mM sodium fluoride, and 2 mM sodium orthovanadate and lysed in lysis buffer (50 mM Tris, 150 mM NaCl, 1% Nonidet P-40, 0.25% sodium deoxycholate, 0.1% CHAPS, 5 mM EDTA, 1.5 mM MgCl2, 2 mM sodium fluoride, 2 mM sodium orthovanadate, 10% glycerol and protease inhibitors (Complete Protease Inhibitor Cocktail tablets, Boehringer Mannheim)). The lysates were clarified by centrifugation and resulting supernatant used for immunoprecipitation.
# The reactions using the chicken anti-FLT-1 antibody were subsequently incubated with a bridging goat anti-chicken antibody (Kirkegaard and Perry Laboratories, Inc.) for 1 h at 4° C. […]
# [2] = test system: A673 rhabdomyosarcoma and LS174T colon adenocarcinoma tumors; assay: Treatment of mice with established A673 and LS174T tumors; details: mouse, in vivo
# NCI-H358 NSCLC tumors = assay: Treatment of established NCI-H358 NSCLC xenografts; type: in vivo, nu/nu mice
# Experimental: (§1) Male nu/nu mice bearing subcutaneous NCI-H358 tumors or HT1080 fibrosarcoma 200-400 mm^3 in size were injected i.p. with test or control antibodies. The NCI-H358 bearing mice were treated with 100 μg of antibodies per injection three times a week during the first week and twice a week during the second and third week. The mice were then switched to 50 μg per injection every five days. The HT1080 bearing mice were treated with 100 μg of the indicated antibody or saline every other day throughout the duration of the study. In both studies, mice were sacrificed when their tumors reached 2500 mm^3 in size or earlier if tumors began to ulcerate.
# Doses were 50-100 μg every 3-5 days. […] In addition to measuring mean tumor volume (FIG. 4), photographs of the mice from each treatment group were also taken to show the differences in tumor size and appearance at the end of the study.
# HT1080 fibrosarcoma = assay: Treatment of established HT1080 fibrosarcoma xenografts; type: in vivo, nu/nu mice; details: 100 μg i.p. every other day; tumors 200-250 mm^3 at start
# Experimental: as §1
# VEGFR2 (KDR/Flk-1) = assay: ELISA: VEGF binding to VEGFR2-coated wells in presence of antibody; design: species or system mouse
# [3] = molecular target: T1, denatured VEGF121 and VEGF165 (Homo sapiens, UniProt P15692); assay: Western blot of VEGF under reducing and non-reducing conditions; type: binding
# T1 sequence (P15692 27-191 isoform P15692-4): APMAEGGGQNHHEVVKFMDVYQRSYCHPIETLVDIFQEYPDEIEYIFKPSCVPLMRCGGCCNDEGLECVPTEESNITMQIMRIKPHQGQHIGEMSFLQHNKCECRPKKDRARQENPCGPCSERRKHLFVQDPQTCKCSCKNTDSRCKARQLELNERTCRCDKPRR
# Experimental: The nitrocellulose membrane was blocked using Sea-Block PP82-41 (East Coast Biologics, Berwick, Me.), and probed with primary antibodies using a mini-blotter apparatus (Immunetics, Cambridge, Mass.). The membranes were developed after incubation with the appropriate peroxidase-conjugated secondary antibody by ECL enhanced chemiluminescence.
# Western blot analyses of anti-VEGF antibodies were conducted by separating VEGF165 in the presence of 5% FCS using SDS-PAGE on a 12% gel and analyzing by a standard western blotting protocol using ECL detection. The primary antibodies were incubated with the nitrocellulose membrane using a multi-lane mini-blotter apparatus.
# VEGFR1 (FLT-1) = assay: ELISA: VEGF binding to VEGFR1-coated wells in presence of antibody
# Experimental: The extracellular domain of VEGFR1 (Flt-1/Fc, R&D Systems, Minneapolis) or VEGFR2 (sFlk-1-biotin) was coated directly on wells of a microtiter plate or captured by NeutrAvidin (Pierce, Rockford, Ill.) coated wells, respectively. VEGF at a concentration of 1 nM (40 ng/ml) was incubated in the wells in the presence or absence of 100-1000 nM (15 μg-150 μg/ml) of control or test antibodies. The wells were then incubated with 1 μg/ml of rabbit anti-VEGF antibody (A-20, Santa Cruz Biotechnology, Santa Cruz, Calif.).
# The reactions were developed by the addition of peroxidase-labeled goat anti-rabbit antibody (Dako, Carpinteria, Calif.) and visualized by addition of 3,3′5,5′-tetramethylbenzidine (TMB) substrate (Kirkegaard and Perry Laboratories, Inc.). Reactions were stopped after 15 min with 1 M H3PO4 and read spectrophotometrically at 450 nM.
# [4] = molecular target: T2, VEGF alone or VEGF associated with sFlk-1 (VEGF:Flk-1) (Homo sapiens, UniProt P15692); assay: Indirect and capture ELISA for reactivity with VEGF alone or VEGF:Flk-1; type: binding
# T2 sequence (P15692 27-191 isoform P15692-4): T1 sequence (P15692 27-191 isoform P15692-4)
# Experimental: The Flk-1/SEAP protein was produced and purified as described by Tessler et al. (1994). Basically, the extracellular domain of Flk-1 (sFlk-1) was produced in Spodoptera frugiperda (Sf9) cells and purified by immunoaffinity techniques utilizing a monoclonal anti-Flk-1 antibody (1A8). sF1k-1 was then biotinylated and bound on avidin-coated plates.
# The reactivity was determined as described above for the initial screening.
# A capture ELISA was also developed. In the capture ELISA, microtiter plates were coated overnight at 4° C. with 100 ng of the indicated antibody. […] Streptavidin conjugated to peroxidase (Kirkegaard & Perry Laboratories, Inc.), diluted 1:2000, was used as a second layer and developed.
# [5] = test system: NCI-H358 human NSCLC and HT29 human colonic adenocarcinoma xenografts; assay: In vivo localization in mice bearing human tumor xenografts (immunohistochemistry of tumor and organs)
# Experimental: Tumors were grown subcutaneously in immunocompromised mice (NCI-H358 NSCLC in nu/nu mice and HT29 colon adenocarcinoma in SCID mice) until the tumor volume was approximately 1 cm^3. 100 μg of unlabeled antibody for studies using SCID mice, or 100 μg of biotinylated antibody for studies using nude mice, was injected intravenously via a tail vein. Twenty four hours later, the mice were anesthetized, perfused with PBS, and tumor and organs including heart, lungs, liver, kidneys, intestines and spleen were collected and snap frozen in liquid nitrogen.
# The tumor and organs from each mouse were sectioned on a cryostat and stained for antibody immunohistochemically as above, with the exception that sections from the nude mice were developed using peroxidase labeled streptavidin-biotin complex (Dako, Carpinteria, Calif.) and the sections from the SCID mice were developed using two peroxidase-conjugated secondary antibodies, a goat anti-mouse IgG+IgM followed by a rabbit anti-goat IgG.
# 100 μg of GV39M and 3E7 or isotype-matched control IgG were injected into SCID mice bearing HT29 human colonic adenocarcinomas. Twenty-four hours later, the mice were sacrificed, exsanguinated and the tumors and tissues were removed.
# [6] = test system: cancer patients having progressive disease; details: clinical trials; cited from earlier work
# [7] = Enzymatic activity of the GUS portion of 2C3-GUS; type: biochemical
# Text: The 6-His GUS was pure based upon SDS-PAGE, where it ran as a single band of 75 kDa band. On gel filtration columns, the 6-His GUS runs as a tetramer of about 300 kDa.
# The biological activity of each component of the 2C3-GUS conjugate was confirmed.
# [8] = Blood clearance of radioiodinated 2C3-GUS after intravenous injection; type: in vivo; details: 125I-labelled, intravenous injection into mice
# Text: 2C3-GUS was radioiodinated with ^125I to a specific activity of 5×10^6 cpm/μg.
# VEGFR1 (Flt-1/Fc) = assay: Co-precipitation assay, VEGF binding to VEGFR1/Fc in solution; details: 40 ng VEGF, 200 ng receptor/Fc; 2C3 F(ab′)2 20 μg, A4.6.1 F(ab′)2 10 and 1 μg
# Experimental: (§2) 200 ng of soluble forms of VEGFR1 (Flt-1/Fc) or VEGFR2 (KDR/Fc, R&D Systems, Minneapolis, Minn.) were added for a total volume of 50 μl and incubated for 2 hrs. The receptor/Fc constructs were precipitated using Protein A-sepharose beads and the resulting precipitate was washed 4 times with binding buffer.
# (§3) Reducing sample buffer was added to the pellet and supernatant of each reaction and both were analyzed by 12% SDS-PAGE and transferred to PVDF membranes. […] The soluble receptor/Fc constructs were also detected by using peroxidase-conjugated goat anti-human Fc (Kirkegaard & Perry Laboratories, Inc.)
# (§4) The receptor/Fc constructs were precipitated by incubation with Protein A sepharose beads. The precipitate was washed and resuspended in reducing sample buffer and separated by 12% SDS-PAGE and transferred to PVDF.
# VEGFR2 (KDR/Fc) = assay: Co-precipitation assay, VEGF binding to VEGFR2/Fc in solution; details: 40 ng VEGF, 200 ng receptor/Fc; 2C3 F(ab′)2 20 μg, A4.6.1 F(ab′)2 10 and 1 μg
# Experimental: as §2, §3, §4
# [9] = 100 fold molar excess over VEGF
compound,measurement,setting,value
"2C3: anti-VEGF monoclonal antibody, IgG2a,k, raised to recombinant human VEGF; hybridoma ATCC PTA 1595; blocks VEGF binding to VEGFR2, not VEGFR1",Blocking of 125I-VEGF binding to KDR on ABAE cells,KDR,blocks VEGF from binding to KDR in a concentration dependent manner
same,Blocks VEGF-induced proliferation,[1],Yes
same,Blocking of VEGF-induced phosphorylation of VEGFR2,VEGFR2,block VEGF-induced phosphorylation of VEGFR2
same,Effect on growth of established A673 and LS174T tumors,[2],significantly slowed the growth
same,Mean tumor weight at the end of the study (day 116),"NCI-H358 NSCLC tumors; FIG. 5A, 100 μg i.p., initial treatment 500 μg i.v.",0.054 g
same,Mean tumor volume after approximately 14 wk of treatment,"NCI-H358 NSCLC tumors; FIG. 5A, 100 μg i.p., start 480 mm^3 (2C3), 428 mm^3 (3E7)",84 mm^3
same,Decrease in mean tumor volume,"NCI-H358 NSCLC tumors; FIG. 5A, after approximately 14 wk",approximately 80%
same,"Mean tumor volume at the end of the study, % of the initial mean tumor volume","NCI-H358 NSCLC tumors; tumors 300-450 mm^3 at start, 50-100 μg i.p. every 3-5 days, approximately 10 weeks",30%
same,Effect on growth of HT1080 tumors,HT1080 fibrosarcoma,arrested the growth of the tumors
same,Reduction in VEGF binding to VEGFR2,VEGFR2 (KDR/Flk-1); [9],about 74%
same,"Amount VEGF bound to VEGFR2-coated wells, % of amount bound in the absence of antibody",VEGFR2 (KDR/Flk-1); 1000-fold molar excess of antibody over VEGF (1 nM VEGF),~19%
same,Reduction in VEGF binding to VEGFR2,VEGFR2 (KDR/Flk-1); 1000 fold molar excess over VEGF,about 81%
same,Blocks VEGF from binding to VEGFR2,VEGFR2 (KDR/Flk-1); Table 5 summary,Yes
same,Reactivity with VEGF on western blot,[3],react with denatured VEGF121 and VEGF165
same,"Amount VEGF that bound to ELISA wells, maintained",VEGFR1 (FLT-1); [9],about 92%
same,Blocks VEGF from binding to VEGFR1,VEGFR1 (FLT-1); Table 5 summary,No
same,Predominant Reactivity,[4],VEGF
same,Tumor localization in the HT29 human tumor model,[5]; after i.v. injection,localized strongly to the connective tissue
same,"Immunohistochemical Reactivity, Tumor","[5]; as E17, 3E7 and GV39M bound tumor vascular endothelium, 2C3 bound tumor stroma",3+
"NC(=O)c1nnn(Cc2cc(Cl)c(C(=O)c3ccc(Cl)cc3)c(Cl)c2)c1N [CAI, carboxyamidotriazole]","Disease stabilization, share of cancer patients having progressive disease before treatment",[6],49%
2C3-GUS,Enzymatic activity of GUS portion,[7],retained enzymatic activity
same,t½ α,[8],about 6 hours
same,t½ β,[8],about 25 hours
2C3 F(ab′)2: F(ab′)2 fragment of 2C3,Blocking of VEGF binding to VEGFR1/Fc in solution,VEGFR1 (Flt-1/Fc),not to VEGFR1/Fc
same,Blocking of VEGF binding to VEGFR2/Fc in solution,VEGFR2 (KDR/Fc),blocked the binding of VEGF to VEGFR2/Fc
